Assay results reported in ChEMBL document CHEMBL4425144, “Discovery and Structural Optimization of N5-Substituted 6,7-Dioxo-6,7-dihydropteridines as Potent and Selective Epidermal Growth Factor Receptor (EGFR) Inhibitors against L858R/T790M Resistance Mutation” (J Med Chem, 2016).
Converted amounts (≈) assume the structure as drawn.

Experiments:
[1] = target: Epidermal growth factor receptor (Homo sapiens, UniProt P00533); assay: Inhibition of wild type EGFR kinase domain (unknown origin) expressed using baculovirus expression system incubated for 1 hr using Poly(Glu,Tyr) 4:1 by ELISA method
[2] = target: Epidermal growth factor receptor (Homo sapiens, UniProt P00533, L858R/T790M); assay: Inhibition of EGFR kinase domain L858R/T790M mutant (unknown origin) expressed using baculovirus expression system incubated for 1 hr using Poly(Glu,Tyr) 4:1 by ELISA method
A-431 [3] = assay: Antiproliferative activity against human A431 cells incubated for 72 hrs by SRB assay; type: functional, cell-based; conditions: A-431, 72 h
NCI-H1975 = assay: Antiproliferative activity against human NCI-H1975 cells incubated for 72 hrs by SRB assay; type: functional, cell-based; conditions: NCI-H1975, 72 h
[4] = Dissociation constant, pKa of the compound by Sirius T3 based assay; type: physicochemical
[5] = Thermodynamic solubility of the compound in 0.1M PBS buffer at pH 7.4 by UV-visible spectrophotometry; type: physicochemical; conditions: read-out: Therm_solubility
A-431 [6] = assay: Antitumor activity against human A431 cells xenografted in BALB/c mouse assessed as inhibition of tumor growth at 25 mg/kg, po qd for 14 consecutive days; type: functional; conditions: A-431, po, read-out: TGI

Epidermal growth factor receptor (Homo sapiens, UniProt P00533), sequence (P00533 whole entry, the tested form may be a part): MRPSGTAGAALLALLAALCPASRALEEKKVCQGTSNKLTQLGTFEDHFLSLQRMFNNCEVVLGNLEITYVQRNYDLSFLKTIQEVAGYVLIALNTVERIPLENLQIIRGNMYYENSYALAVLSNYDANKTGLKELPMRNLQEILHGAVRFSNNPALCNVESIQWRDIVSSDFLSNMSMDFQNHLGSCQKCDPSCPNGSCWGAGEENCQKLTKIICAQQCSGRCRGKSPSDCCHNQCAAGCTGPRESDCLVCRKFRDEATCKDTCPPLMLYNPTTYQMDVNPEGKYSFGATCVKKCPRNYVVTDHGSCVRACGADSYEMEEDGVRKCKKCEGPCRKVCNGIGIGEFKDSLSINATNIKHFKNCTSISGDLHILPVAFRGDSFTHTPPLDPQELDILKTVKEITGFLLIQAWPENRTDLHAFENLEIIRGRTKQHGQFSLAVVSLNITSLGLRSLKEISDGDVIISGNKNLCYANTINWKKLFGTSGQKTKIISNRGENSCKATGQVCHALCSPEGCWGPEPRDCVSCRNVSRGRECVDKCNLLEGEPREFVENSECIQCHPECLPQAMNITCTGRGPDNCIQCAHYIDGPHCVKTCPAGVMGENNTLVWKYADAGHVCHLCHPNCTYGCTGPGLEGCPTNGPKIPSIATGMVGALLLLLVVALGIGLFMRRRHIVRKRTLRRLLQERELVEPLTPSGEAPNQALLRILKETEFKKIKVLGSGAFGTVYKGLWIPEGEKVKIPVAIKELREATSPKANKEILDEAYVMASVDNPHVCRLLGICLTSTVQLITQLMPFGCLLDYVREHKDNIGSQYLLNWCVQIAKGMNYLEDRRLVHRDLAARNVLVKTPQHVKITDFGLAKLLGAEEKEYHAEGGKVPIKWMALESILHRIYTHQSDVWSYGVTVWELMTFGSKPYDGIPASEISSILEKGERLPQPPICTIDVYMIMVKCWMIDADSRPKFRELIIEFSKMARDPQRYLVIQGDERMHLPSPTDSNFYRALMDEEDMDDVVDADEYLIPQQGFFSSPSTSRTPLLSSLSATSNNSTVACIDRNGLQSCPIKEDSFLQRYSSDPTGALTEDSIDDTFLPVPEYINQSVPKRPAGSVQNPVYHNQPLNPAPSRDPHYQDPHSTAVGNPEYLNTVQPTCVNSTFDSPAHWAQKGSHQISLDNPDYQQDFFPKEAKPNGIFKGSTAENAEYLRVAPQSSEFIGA
Epidermal growth factor receptor (Homo sapiens, UniProt P00533, L858R/T790M), sequence (P00533 25-1210 T790M/L858R limits assumed): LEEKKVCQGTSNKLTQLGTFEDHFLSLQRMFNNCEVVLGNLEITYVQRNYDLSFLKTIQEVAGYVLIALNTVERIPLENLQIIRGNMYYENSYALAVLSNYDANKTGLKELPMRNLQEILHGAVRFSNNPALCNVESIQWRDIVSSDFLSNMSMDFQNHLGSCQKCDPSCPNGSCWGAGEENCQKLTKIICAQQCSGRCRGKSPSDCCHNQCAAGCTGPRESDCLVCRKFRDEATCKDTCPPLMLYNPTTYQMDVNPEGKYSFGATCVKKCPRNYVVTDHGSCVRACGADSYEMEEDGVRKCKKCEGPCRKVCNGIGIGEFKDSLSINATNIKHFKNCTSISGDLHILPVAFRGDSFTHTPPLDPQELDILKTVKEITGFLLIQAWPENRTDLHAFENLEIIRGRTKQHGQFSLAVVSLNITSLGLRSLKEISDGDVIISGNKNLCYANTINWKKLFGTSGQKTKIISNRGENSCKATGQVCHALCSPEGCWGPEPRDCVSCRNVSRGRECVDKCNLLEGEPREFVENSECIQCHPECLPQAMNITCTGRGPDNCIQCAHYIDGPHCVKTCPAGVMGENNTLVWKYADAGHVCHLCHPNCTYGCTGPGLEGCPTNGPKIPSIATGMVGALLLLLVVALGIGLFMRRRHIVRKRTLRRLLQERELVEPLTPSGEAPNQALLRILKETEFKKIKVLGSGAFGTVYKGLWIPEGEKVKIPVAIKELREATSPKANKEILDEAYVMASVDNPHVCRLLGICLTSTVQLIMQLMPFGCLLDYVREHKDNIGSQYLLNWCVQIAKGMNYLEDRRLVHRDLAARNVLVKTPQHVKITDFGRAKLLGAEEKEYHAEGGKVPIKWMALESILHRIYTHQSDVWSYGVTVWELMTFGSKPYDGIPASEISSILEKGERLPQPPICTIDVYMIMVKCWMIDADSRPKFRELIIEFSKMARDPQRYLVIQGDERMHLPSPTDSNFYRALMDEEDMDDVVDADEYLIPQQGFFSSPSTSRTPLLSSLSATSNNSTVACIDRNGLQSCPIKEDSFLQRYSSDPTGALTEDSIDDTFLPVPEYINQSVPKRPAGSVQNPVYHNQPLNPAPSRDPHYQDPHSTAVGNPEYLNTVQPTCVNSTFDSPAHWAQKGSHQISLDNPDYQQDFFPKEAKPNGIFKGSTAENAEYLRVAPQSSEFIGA

| SMILES | IC50 [1] | IC50 [2] | IC50 (A-431 [3]) | IC50 (NCI-H1975) | pKa [4] | solubility thermodynamic [5] | inhibition in vivo at 25 mg/kg (A-431 [6]) |
| --- | --- | --- | --- | --- | --- | --- | --- |
| C=CC(=O)Nc1cccc(-n2c(=O)c(=O)n(C(C)C)c3cnc(Nc4ccc(N5CCN(C)CC5)c(OC)c4)nc32)c1 | 8.6 nM | 1.3 nM | 669 nM | 213 nM | 8.4 | 298 µg/mL (≈ 522 µM) | – |
| CN(C)C/C=C/C(=O)Nc1cc2c(Nc3ccc(F)c(Cl)c3)ncnc2cc1O[C@H]1CCOC1 [AFATINIB] | – | – | – | – | – | – | 94% |
| C=CC(=O)Nc1cccc(-n2c(=O)c(=O)[nH]c3cnc(Nc4ccc(N5CCN(C)CC5)cc4OC)nc32)c1 | 2.8 nM | 2.5 nM | > 10000 nM | > 10000 nM | 7.8 | 839 µg/mL (≈ 1590 µM) | – |
| C=CC(=O)Nc1cccc(-n2c(=O)c(=O)n(C(C)C)c3cnc(Nc4ccc(N(C)CCN(C)C)cc4OC)nc32)c1 | 223 nM | 17 nM | 1530 nM | 440 nM | 8.9 | 1620 µg/mL (≈ 2830 µM) | – |
| C=CC(=O)Nc1cccc(-n2c(=O)c(=O)n(C(C)C)c3cnc(Nc4ccc(N5CCC(N6CCN(C)CC6)CC5)cc4OC)nc32)c1 | 28 nM | 7.8 nM | 2260 nM | 1190 nM | 8.8 | 109 µg/mL (≈ 167 µM) | – |
| C=CC(=O)Nc1cccc(-n2c(=O)c(=O)n(C)c3cnc(Nc4ccc(N5CCN(C)CC5)cc4OC)nc32)c1 | 474 nM | 4.7 nM | > 10000 nM | 1770 nM | 7.3 | 392 µg/mL (≈ 722 µM) | – |
| C=CC(=O)Nc1cccc(-n2c(=O)c(=O)n(C(C)C)c3cnc(Nc4ccc(OCCN(C)C)cc4OC)nc32)c1 | 68 nM | 143 nM | 1500 nM | 415 nM | 8.8 | 437 µg/mL (≈ 781 µM) | – |
| C=CC(=O)Nc1cccc(-n2c(=O)c(=O)n(C(C)C)c3cnc(Nc4ccc(N5CCN(C)CC5)c(C)c4)nc32)c1 | 1.4 nM | 1.5 nM | 309 nM | 151 nM | 8.1 | 190 µg/mL (≈ 343 µM) | – |
| C=CC(=O)Nc1cccc(-n2c(=O)c(=O)n(CC)c3cnc(Nc4ccc(N5CCN(C)CC5)cc4OC)nc32)c1 | 81 nM | 1.2 nM | 8820 nM | 126 nM | 7.4 | < 10 µg/mL | – |
| C=CC(=O)Nc1cccc(-n2c(=O)c(=O)n(CCC)c3cnc(Nc4ccc(N5CCN(C)CC5)cc4OC)nc32)c1 | 2.2 nM | 0.6 nM | 2140 nM | 119 nM | 7.5 | < 10 µg/mL | – |
